Entries after “also recorded” stand apart in the source; their conditions may differ.
Assays:
PML NBs = biological target: T1, PML NBs (Homo sapiens, UniProt P29590); assay: PML NB labelling in in situ nuclear matrix preparations (immunofluorescence); format: cell-based; details: nuclear matrix prepared in situ, exposure to DTT
T1 construct: endogenous in cells
T1 sequence (P29590 1-882): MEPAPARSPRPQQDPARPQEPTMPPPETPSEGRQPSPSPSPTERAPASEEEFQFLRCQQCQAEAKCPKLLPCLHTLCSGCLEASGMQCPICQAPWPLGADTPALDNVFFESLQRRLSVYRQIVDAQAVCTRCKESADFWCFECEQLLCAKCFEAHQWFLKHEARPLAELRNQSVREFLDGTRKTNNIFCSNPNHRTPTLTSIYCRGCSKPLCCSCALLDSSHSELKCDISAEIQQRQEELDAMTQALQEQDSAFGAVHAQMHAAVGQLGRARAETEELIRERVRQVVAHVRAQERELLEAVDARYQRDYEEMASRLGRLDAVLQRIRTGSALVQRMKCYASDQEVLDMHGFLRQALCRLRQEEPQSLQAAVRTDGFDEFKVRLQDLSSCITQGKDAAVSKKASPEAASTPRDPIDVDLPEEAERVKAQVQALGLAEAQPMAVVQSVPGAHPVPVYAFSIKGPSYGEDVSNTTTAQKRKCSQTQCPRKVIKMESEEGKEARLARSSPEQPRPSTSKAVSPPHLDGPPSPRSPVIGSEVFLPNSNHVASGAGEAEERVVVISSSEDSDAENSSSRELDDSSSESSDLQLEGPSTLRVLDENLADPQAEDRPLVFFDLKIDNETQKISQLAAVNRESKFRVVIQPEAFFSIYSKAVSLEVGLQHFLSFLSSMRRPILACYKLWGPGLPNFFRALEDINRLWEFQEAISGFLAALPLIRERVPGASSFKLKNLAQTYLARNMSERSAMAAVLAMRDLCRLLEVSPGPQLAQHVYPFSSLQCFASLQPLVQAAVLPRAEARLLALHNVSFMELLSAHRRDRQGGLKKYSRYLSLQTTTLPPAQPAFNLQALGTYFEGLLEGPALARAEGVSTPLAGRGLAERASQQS
Procedure: (§1) Immunofluorescence, electronic microscopy and antibodies were previously described^15. In situ nuclear matrix preparations were prepared as described^1. Confocal analyses were performed on a LSM510 Meta laser microscope (Carl Zeiss MicroImaging, Inc.) with a plan apochromat 63X N.A.1.4 oil immersion objective and increased resolution images were obtained with deconvolution software (Autodeblur, Image Quant) using blind iterative algorithms.
(§2) Intermolecular disulfide bonds were previously implicated in stabilization of the nuclear matrix. […] We then compared total and nuclear matrix extracts from transiently transfected CHO cells under non-reducing conditions and observed that the matrix fraction was dramatically enriched in covalent PML dimers.
The matrix-associated PML fraction is hypersumoylated. Conversely, deletion of the coiled-coil of PML abrogates its association to the nuclear matrix, NB formation, and sumoylation. Thus, whereas As2O3 induces PML targeting to the matrix and NB formation independently of sumoylation, matrix association contributes to basal or As2O3-enhanced PML sumoylation. We therefore questioned how As2O3 could promote transfer from soluble diffuse nuclear PML to insoluble, matrix-associated NBs. As2O3 controls protein phosphorylation and ROS production. […]

lamin B = lamin B staining in in situ nuclear matrix preparations; format: cell-based; details: nuclear matrix prepared in situ, exposure to DTT
Procedure: as §1
The mouse anti-GFP antibody was from Roche Applied Science; Goat polyclonal anti-Lamin B (M20), rabbit polyclonal anti-RXRa (D20) and anti-Daxx (M-112) were from Santa Cruz Biotechnology. Rabbit polyclonal anti-Daxx from G. Grosveld was used for Western blot analysis. Anti SUMO-1 (mouse monoclonal anti GMP-1 antibody) and Rabbit polyclonal anti-SUMO-2/3 antibodies were from Zymed Laboratories. Rabbit polyclonal anti-RARA115 was a kind gift of Pierre Chambon. […] Fluorescence was quantified with ImageJ software.
as §2
The matrix-associated PML fraction is hypersumoylated. […]

O[C@@H](CS)[C@@H](O)CS [DTT]
PML NB labelling in in situ nuclear matrix (PML NBs): PML NB labelling was lost; also recorded: disrupted endogenous PML NBs
lamin B staining (lamin B): unaffected; also recorded: without affecting lamin-B staining
